US20230085307A1, “PYRIDAZINONE COMPOUND AND HERBICIDE” (NISSAN CHEMICAL CORPORATION, priority 2019, published 2023)

Experiments:
[1] = test system: late watergrass; test: Test Example 1: herbicidal activity, application before weed generation under submerged conditions (Table 16, symbol A); assay type: in vivo, late watergrass (Echinochloa oryzicola)
How it was run: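 Emulsion formulation, water-diluted to set dose, was put onto the flooded surface (4 cm depth, alluvial soil) the same day weeds were sown and 2.5-leaf rice transplanted. After 3 weeks at 25-30 °C under glass, each species was rated 0 (≤5% kill) to 5 (≥90% kill).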

[2] = test system: late watergrass; test: Test Example 2: herbicidal activity, application during weed generation under submerged conditions (Table 17, symbol A); assay type: in vivo, late watergrass (Echinochloa oryzicola); details: application during weed generation, submerged conditions
How it was run: (§1)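 3-wk visual-criteria score after one water-surface dose. Emulsion formulation, water-diluted to set rate; applied at 1–2 leaf stage; alluvial soil, 4 cm standing water; seeds co-sown; greenhouse 25–30° C.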

[3] = test system: Japanese bulrush; test: Test Example 2: herbicidal activity, application during weed generation under submerged conditions (Table 17, symbol B); assay type: in vivo, Japanese bulrush (Schoenoplectus juncoides); details: application during weed generation, submerged conditions
How it was run: as §1

[4] = test system: oval-leafed pondweed; test: Test Example 2: herbicidal activity, application during weed generation under submerged conditions (Table 17, symbol C); assay type: in vivo, oval-leafed pondweed (Monochoria vaginalis); details: application during weed generation, submerged conditions
How it was run: as §1

[5] = test system: rice flat sedge; test: Test Example 3: herbicidal effect by foliage application, Wagner pot (Table 18, symbol E); assay type: in vivo, rice flat sedge (Cyperus iria)
How it was run: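 Plants were sown in alluvial soil held under 0.1–0.5 cm standing water and grown 14 days in a greenhouse at 25–30 °C. An emulsifiable formulation, water-diluted to the set dose, was then sprayed onto the foliage, and effects were scored three weeks later using previously defined criteria.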

[6] = test system: green foxtail; test: Test Example 4: herbicidal effect by soil treatment (Table 19, symbol G); assay type: in vivo, green foxtail (Setaria viridis)
How it was run: (§2)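 Soil-surface application: an emulsion agent diluted with water to the predetermined dose is sprayed uniformly over seeds lying under roughly 1.5 cm of sterilized diluvial soil. Boxes stay in a greenhouse at 25° C. to 30° C. Three weeks later, each species is graded on previously defined criteria.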

[7] = test system: barnyard grass; test: Test Example 4: herbicidal effect by soil treatment (Table 19, symbol H); assay type: in vivo, barnyard grass (Echinochloa crus-galli)
How it was run: as §2

[8] = test system: windgrass; test: Test Example 4: herbicidal effect by soil treatment (Table 19, symbol L); assay type: in vivo, windgrass (Apera spica-venti)
How it was run: as §2

[9] = test system: velvetleaf; test: Test Example 4: herbicidal effect by soil treatment (Table 19, symbol M); assay type: in vivo, velvetleaf (Abutilon theophrasti)
How it was run: as §2

[10] = test system: lambsquarters; test: Test Example 4: herbicidal effect by soil treatment (Table 19, symbol O); assay type: in vivo, lambsquarters (Chenopodium album)
How it was run: as §2

[11] = test system: chickweed; test: Test Example 4: herbicidal effect by soil treatment (Table 19, symbol P); assay type: in vivo, common chickweed (Stellaria media)
How it was run: as §2

[12] = test system: persian speedwell; test: Test Example 4: herbicidal effect by soil treatment (Table 19, symbol R); assay type: in vivo, Persian speedwell (Veronica persica)
How it was run: as §2

[13] = test system: green foxtail; test: Test Example 5: herbicidal effect by foliage application, plastic box (Table 20, symbol G); assay type: in vivo, green foxtail (Setaria viridis); details: foliage application, three weeks after application
How it was run: (§3)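 Sow seeds spot-wise in sterilized diluvial soil; cover with ~1.5 cm soil. Grow 14 days in greenhouse, 25° C. to 30° C. Spray foliage with emulsion diluted to predetermined amount. Rate effect after 3 weeks.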

[14] = test system: Italian ryegrass; test: Test Example 5: herbicidal effect by foliage application, plastic box (Table 20, symbol K); assay type: in vivo, Italian ryegrass (Lolium multiflorum); details: foliage application, three weeks after application
How it was run: as §3

[15] = test system: velvetleaf; test: Test Example 5: herbicidal effect by foliage application, plastic box (Table 20, symbol M); assay type: in vivo, velvetleaf (Abutilon theophrasti); details: foliage application, three weeks after application
How it was run: as §3

[16] = test system: redroot pigweed; test: Test Example 5: herbicidal effect by foliage application, plastic box (Table 20, symbol N); assay type: in vivo, redroot pigweed (Amaranthus retroflexus); details: foliage application, three weeks after application
How it was run: as §3

[17] = test system: chickweed; test: Test Example 5: herbicidal effect by foliage application, plastic box (Table 20, symbol P); assay type: in vivo, common chickweed (Stellaria media); details: foliage application, three weeks after application
How it was run: as §3

[18] = amount of applied herbicide 304 g/ha
[19] = amount of applied herbicide 320 g/ha
[20] = amount of applied herbicide 80 g/ha

SMILES	Herbicidal effect, A: late watergrass [1, 19]	herbicidal effect rating, A: late watergrass ([2]; AAH 320 g/ha)	herbicidal effect rating, B: Japanese bulrush ([3]; AAH 320 g/ha)	herbicidal effect rating, C: oval-leafed pondweed ([4]; AAH 320 g/ha)	herbicidal effect on rice flat sedge (E) ([5]; 320 g/ha)	G: green foxtail, herbicidal effect grade [6, 19]	H: barnyard grass, herbicidal effect grade [7, 19]	L: windgrass, herbicidal effect grade [8, 19]	M: velvetleaf, herbicidal effect grade [9, 19]	O: lambsquarters, herbicidal effect grade [10, 19]	P: chickweed, herbicidal effect grade [11, 19]	R: persian speedwell, herbicidal effect grade [12, 19]	G: green foxtail, herbicidal effect grade ([13]; 320 g/ha)	K: Italian ryegrass, herbicidal effect grade ([14]; 320 g/ha)	M: velvetleaf, herbicidal effect grade ([15]; 320 g/ha)	N: redroot pigweed, herbicidal effect grade ([16]; 320 g/ha)	P: chickweed, herbicidal effect grade ([17]; 320 g/ha)	also measured
CCCC(=O)Oc1c(C)nn(C)c(=O)c1-c1c(-c2ccccc2OCC)sc2cc(C)ccc12 [3-054]																		Herbicidal effect, A: late watergrass [1, 18]: 5 (Herbicidal rate of 90% or more (almost completely withered)); herbicidal effect rating, A: late watergrass ([2]; AAH 304 g/ha): 2 (Herbicidal rate of 20% or more and less than 40%); herbicidal effect rating, B: Japanese bulrush ([3]; AAH 304 g/ha): 3 (Herbicidal rate of 40% or more and less than 70%); herbicidal effect rating, C: oval-leafed pondweed ([4]; AAH 304 g/ha): 3 (Herbicidal rate of 40% or more and less than 70%); herbicidal effect on rice flat sedge (E) ([5]; 304 g/ha): 5 (Herbicidal rate of 90% or more (almost completely withered)); G: green foxtail, herbicidal effect grade [6, 18]: 3 (Herbicidal rate of 40% or more and less than 70%); H: barnyard grass, herbicidal effect grade [7, 18]: 0 (Herbicidal rate of 5% or less (almost no effect)); L: windgrass, herbicidal effect grade [8, 18]: 3 (Herbicidal rate of 40% or more and less than 70%); M: velvetleaf, herbicidal effect grade [9, 18]: 0 (Herbicidal rate of 5% or less (almost no effect)); O: lambsquarters, herbicidal effect grade [10, 18]: 0 (Herbicidal rate of 5% or less (almost no effect)); P: chickweed, herbicidal effect grade [11, 18]: 3 (Herbicidal rate of 40% or more and less than 70%); R: persian speedwell, herbicidal effect grade [12, 18]: 3 (Herbicidal rate of 40% or more and less than 70%); G: green foxtail, herbicidal effect grade ([13]; 304 g/ha): 5 (Herbicidal rate of 90% or more (almost completely withered)); K: Italian ryegrass, herbicidal effect grade ([14]; 304 g/ha): 5 (Herbicidal rate of 90% or more (almost completely withered)); M: velvetleaf, herbicidal effect grade ([15]; 304 g/ha): 4 (Herbicidal rate of 70% or more and less than 90%); N: redroot pigweed, herbicidal effect grade ([16]; 304 g/ha): 5 (Herbicidal rate of 90% or more (almost completely withered)); P: chickweed, herbicidal effect grade ([17]; 304 g/ha): 5 (Herbicidal rate of 90% or more (almost completely withered))
COc1cc(F)ccc1-c1sc2cc(C)ccc2c1-c1c(O)c(C)nn(C)c1=O [3-055]	4 (Herbicidal rate of 70% or more and less than 90%)	1 (Herbicidal rate of 5% or more and less than 20%)	1 (Herbicidal rate of 5% or more and less than 20%)	3 (Herbicidal rate of 40% or more and less than 70%)	5 (Herbicidal rate of 90% or more (almost completely withered))	0 (Herbicidal rate of 5% or less (almost no effect))	0 (Herbicidal rate of 5% or less (almost no effect))	2 (Herbicidal rate of 20% or more and less than 40%)	0 (Herbicidal rate of 5% or less (almost no effect))	0 (Herbicidal rate of 5% or less (almost no effect))	4 (Herbicidal rate of 70% or more and less than 90%)	4 (Herbicidal rate of 70% or more and less than 90%)	5 (Herbicidal rate of 90% or more (almost completely withered))	5 (Herbicidal rate of 90% or more (almost completely withered))	5 (Herbicidal rate of 90% or more (almost completely withered))	5 (Herbicidal rate of 90% or more (almost completely withered))	5 (Herbicidal rate of 90% or more (almost completely withered))	
CCCC(=O)Oc1c(C)nn(C)c(=O)c1-c1c(-c2ccccc2OCC)sc2cc(OC)ccc12 [3-071]	5 (Herbicidal rate of 90% or more (almost completely withered))	5 (Herbicidal rate of 90% or more (almost completely withered))	5 (Herbicidal rate of 90% or more (almost completely withered))	5 (Herbicidal rate of 90% or more (almost completely withered))	5 (Herbicidal rate of 90% or more (almost completely withered))	4 (Herbicidal rate of 70% or more and less than 90%)	3 (Herbicidal rate of 40% or more and less than 70%)	4 (Herbicidal rate of 70% or more and less than 90%)	1 (Herbicidal rate of 5% or more and less than 20%)	3 (Herbicidal rate of 40% or more and less than 70%)	5 (Herbicidal rate of 90% or more (almost completely withered))	5 (Herbicidal rate of 90% or more (almost completely withered))	5 (Herbicidal rate of 90% or more (almost completely withered))	4 (Herbicidal rate of 70% or more and less than 90%)	5 (Herbicidal rate of 90% or more (almost completely withered))	5 (Herbicidal rate of 90% or more (almost completely withered))	5 (Herbicidal rate of 90% or more (almost completely withered))	
CCOc1cc(F)ccc1-c1sc2cc(OC)ccc2c1-c1c(O)c(C)nn(C)c1=O [3-078]																		Herbicidal effect, A: late watergrass [1, 20]: 5 (Herbicidal rate of 90% or more (almost completely withered)); herbicidal effect rating, A: late watergrass ([2]; AAH 80 g/ha): 1 (Herbicidal rate of 5% or more and less than 20%); herbicidal effect rating, B: Japanese bulrush ([3]; AAH 80 g/ha): 5 (Herbicidal rate of 90% or more (almost completely withered)); herbicidal effect rating, C: oval-leafed pondweed ([4]; AAH 80 g/ha): 4 (Herbicidal rate of 70% or more and less than 90%); herbicidal effect on rice flat sedge (E) ([5]; 80 g/ha): 5 (Herbicidal rate of 90% or more (almost completely withered)); G: green foxtail, herbicidal effect grade [6, 20]: 0 (Herbicidal rate of 5% or less (almost no effect)); H: barnyard grass, herbicidal effect grade [7, 20]: 0 (Herbicidal rate of 5% or less (almost no effect)); L: windgrass, herbicidal effect grade [8, 20]: 0 (Herbicidal rate of 5% or less (almost no effect)); M: velvetleaf, herbicidal effect grade [9, 20]: 0 (Herbicidal rate of 5% or less (almost no effect)); O: lambsquarters, herbicidal effect grade [10, 20]: 4 (Herbicidal rate of 70% or more and less than 90%); P: chickweed, herbicidal effect grade [11, 20]: 5 (Herbicidal rate of 90% or more (almost completely withered)); R: persian speedwell, herbicidal effect grade [12, 20]: 5 (Herbicidal rate of 90% or more (almost completely withered)); G: green foxtail, herbicidal effect grade ([13]; 80 g/ha): 4 (Herbicidal rate of 70% or more and less than 90%); K: Italian ryegrass, herbicidal effect grade ([14]; 80 g/ha): 4 (Herbicidal rate of 70% or more and less than 90%); M: velvetleaf, herbicidal effect grade ([15]; 80 g/ha): 5 (Herbicidal rate of 90% or more (almost completely withered)); N: redroot pigweed, herbicidal effect grade ([16]; 80 g/ha): 5 (Herbicidal rate of 90% or more (almost completely withered)); P: chickweed, herbicidal effect grade ([17]; 80 g/ha): 5 (Herbicidal rate of 90% or more (almost completely withered))
